{"source": "patent US10561630B2", "about": "“Hydroxycitric acid compounds and capsule liquid delivery” (GLYKON TECHNOLOGIES GROUP, LLC, priority 2016, dated 2020)", "origin": "cited, not measured here", "key": {"[1]": {"details": "single large oral dose or two divided oral doses; min. 2.63 mmoles/kg once per day or 0.33 mmoles/kg twice per day; high-sugar diet"}, "[2]": {"details": "2-week period"}}, "data": [{"smiles": "O=C(O)CC(O)(C(=O)O)C(O)C(=O)O", "note": "(single isomer, unassigned; (-)) [HCA, (−)-hydroxycitric acid]", "values": [{"measurement": "reduction in food consumption", "setting": "[1]", "result": "≥ 10", "unit": "%"}, {"measurement": "food intake decreased", "setting": "[2]; 900 mg HCA, dissolved in 100 ml tomato juice", "result": "15-30%"}, {"measurement": "weight loss", "setting": "[2]", "result": "no significant weight loss"}]}]}
